Source: ChEMBL document CHEMBL1201862, “PubChem BioAssay data set” (2004)
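1) Cells in 96-well plates. 2) Compound, 48 h, 5 concentrations. 3) Linear interpolation between surrounding doses. 4) Unreached endpoint = highest concentration. At the GI50, growth is halved.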 Active and inactive are the calls of the source. No stated cut-off is given here; in the data, active = GI50 up to about 1.1 µM and inactive = higher.

Experiments:
Assay in all cases: NCI-60 cell line screen, 48 h
[1] = test system: A498
[2] = test system: A549
[3] = test system: ACHN
[4] = test system: CAKI-1
[5] = test system: CCRF-CEM
[6] = test system: COLO 205
[7] = test system: DU-145
[8] = test system: EKVX
[9] = test system: HCC 2998
[10] = test system: HCT-116
[11] = test system: HCT-15
[12] = test system: HL-60
[13] = test system: HOP-62
[14] = test system: HT-29
[15] = test system: Hs-578T
[16] = test system: IGROV-1
[17] = test system: KM12
[18] = test system: LOX IMVI
[19] = test system: M14
[20] = test system: MCF7
[21] = test system: MDA-MB-231
[22] = test system: MDA-MB-435
[23] = test system: MOLT-4
[24] = test system: Malme-3M
[25] = test system: NCI-H226
[26] = test system: NCI-H23
[27] = test system: NCI-H460
[28] = test system: NCI-H522
[29] = test system: NCI/ADR-RES
[30] = test system: OVCAR-3
[31] = test system: OVCAR-4
[32] = test system: OVCAR-5
[33] = test system: OVCAR-8
[34] = test system: PC-3
[35] = test system: RPMI-8226
[36] = test system: RXF 393
[37] = test system: SF-268
[38] = test system: SF-295
[39] = test system: SF-539
[40] = test system: SK-MEL-28
[41] = test system: SK-MEL-2
[42] = test system: SK-MEL-5
[43] = test system: SK-OV-3
[44] = test system: SN12C
[45] = test system: SNB-19
[46] = test system: SNB-75
[47] = test system: SR
[48] = test system: SW-620
[49] = test system: T47D
[50] = test system: TK-10
[51] = test system: U-251
[52] = test system: UACC-62
[53] = test system: UO-31
[54] = test system: 786-0
[55] = test system: K562
[56] = test system: MDA-N

With `O=c1c2c(nc3[nH]ccn13)CCCC2` the GI50 [1] was > 10 µM (inactive), the GI50 [2] was > 10 µM (inactive) and the GI50 [3] was > 10 µM (inactive). For the same compound, the GI50 [4] was > 10 µM (inactive), the GI50 [5] was > 10 µM (inactive) and the GI50 [6] was > 10 µM (inactive). For the same compound, the GI50 [7] was > 10 µM (inactive), the GI50 [8] was > 10 µM (inactive) and the GI50 [9] was > 10 µM (inactive). For the same compound, the GI50 [10] was > 10 µM (inactive), the GI50 [11] was greater than 10 µM and the GI50 [12] was > 10 µM (inactive). For the same compound, the GI50 [13] was > 10 µM (inactive), the GI50 [14] was > 10 µM (inactive) and the GI50 [15] was 1.23 µM (inactive). The GI50 [16] was > 10 µM (inactive), the GI50 [17] was > 10 µM (inactive) and the GI50 [18] was > 10 µM (inactive). For the same compound, the GI50 [19] was > 10 µM (inactive), the GI50 [20] was > 10 µM (inactive) and the GI50 [21] was > 10 µM (inactive). The GI50 [22] was > 10 µM (inactive), the GI50 [23] was > 10 µM (inactive) and the GI50 [24] was > 10 µM (inactive). The GI50 [25] was > 10 µM (inactive), the GI50 [26] was > 10 µM (inactive) and the GI50 [27] was > 10 µM (inactive). For the same compound, the GI50 [28] was > 10 µM (inactive), the GI50 [29] was > 10 µM (inactive) and the GI50 [30] was > 10 µM (inactive). For the same compound, the GI50 [31] was > 10 µM (inactive), the GI50 [32] was > 10 µM (inactive) and the GI50 [33] was > 10 µM (inactive). The GI50 [34] was > 10 µM (inactive), the GI50 [35] was > 10 µM (inactive) and the GI50 [36] was > 10 µM (inactive). The GI50 [37] was > 10 µM (inactive), the GI50 [38] was > 10 µM (inactive) and the GI50 [39] was > 10 µM (inactive). The GI50 [40] was > 10 µM (inactive), the GI50 [41] was > 10 µM (inactive) and the GI50 [42] was > 10 µM (inactive). The GI50 [43] was > 10 µM (inactive), the GI50 [44] was > 10 µM (inactive) and the GI50 [45] was > 10 µM (inactive). The GI50 [46] was > 10 µM (inactive), the GI50 [47] was > 10 µM (inactive) and the GI50 [48] was > 10 µM (inactive). The GI50 [49] was > 10 µM (inactive), the GI50 [50] was > 10 µM (inactive) and the GI50 [51] was > 10 µM (inactive). The GI50 [52] was > 10 µM (inactive) and the GI50 [53] was > 10 µM (inactive).
In the case of `Cc1cc(N)c2ccccc2[n+]1CCCCCCCCCCNc1cc(C)[n+](CCCCCCCCCC[n+]2c(C)cc(N)c3ccccc32)c2ccccc12`, the GI50 [54] is reported as 0.547 µM (active), the GI50 [2] is reported as 0.692 µM (active) and the GI50 [3] is reported as 0.964 µM (active). The GI50 [4] was 34.6 µM (inactive), the GI50 [5] was 0.52 µM (active) and the GI50 [6] was 0.375 µM (active). The GI50 [7] was 1.75 µM (inactive), the GI50 [8] was 14.6 µM (inactive) and the GI50 [9] was 0.759 µM (active). For the same compound, the GI50 [10] was 1.35 µM (inactive), the GI50 [11] was 1.75 µM and the GI50 [13] was 0.929 µM (active). The GI50 [14] was 11.6 µM (inactive), the GI50 [16] was 1.35 µM (inactive) and the GI50 [55] was 0.4 µM (active). The GI50 [17] was 0.618 µM (active), the GI50 [18] was 1.79 µM (inactive) and the GI50 [19] was 0.746 µM (active). The GI50 [20] was 0.682 µM (active), the GI50 [22] was 0.427 µM (active) and the GI50 [56] was 0.333 µM (active). For the same compound, the GI50 [23] was 1.01 µM (active), the GI50 [26] was 0.516 µM (active) and the GI50 [30] was 1.56 µM (inactive). For the same compound, the GI50 [32] was 1.49 µM (inactive), the GI50 [33] was 1.61 µM (inactive) and the GI50 [34] was 1.02 µM (active). For the same compound, the GI50 [35] was 0.352 µM (active), the GI50 [38] was 1.32 µM (inactive) and the GI50 [40] was 0.528 µM (active). The GI50 [41] was 1.41 µM (inactive), the GI50 [42] was 0.439 µM (active) and the GI50 [44] was 0.293 µM (active). The GI50 [48] was 2.23 µM (inactive), the GI50 [51] was 0.406 µM (active) and the GI50 [52] was 0.608 µM (active). For the same compound, the GI50 [53] was 1.86 µM (inactive).
